According to paper PMC8774648, “Effects of Baicalein and Chrysin on the Structure and Functional Properties of β-Lactoglobulin” (Foods, 2022):
Where “and” joins values, the source holds several entries; their conditions need not be identical. Equal values may be shown once. Marks after values point to notes of the source that are not given here.

Assays:
β-lactoglobulin (BLG) [1] = biological target: T1, β-lactoglobulin (BLG) (Bos taurus, UniProt P02754); assay: Thermodynamic parameters of Bai/Chr–BLG binding (Van't Hoff equation)
T1 construct: purchased Sigma–Aldrich Co. (St. Louis, MO, USA)
T1 sequence (P02754 17-178): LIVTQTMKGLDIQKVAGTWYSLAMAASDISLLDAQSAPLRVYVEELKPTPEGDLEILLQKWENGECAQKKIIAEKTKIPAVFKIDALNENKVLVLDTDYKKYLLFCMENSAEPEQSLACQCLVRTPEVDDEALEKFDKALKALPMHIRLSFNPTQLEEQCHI
Procedure: In order to determine the primary forces between BLG and Bai/Chr, thermodynamic parameters were calculated using the following equations [23]:(3) logKa=−ΔH°/2.303RT+ΔS°/2.303R (4) ΔG°=ΔH°−TΔS° where R and T represent gas constant (8.314 J mol^−1 K^−1) and temperature (298, 304, and 310 K), respectively. Enthalpy change (ΔH°) and entropy change (ΔS°) of interaction between ligands and biomolecules are the main criteria for evaluating acting force, and free energy (ΔG°) is the main criteria for estimating the spontaneity of interaction.

β-lactoglobulin (BLG) [2] = biological target: T1, β-lactoglobulin (BLG); assay: Emulsifying ability and emulsifying stability of BLG
Procedure: Emulsifying ability (EA) and emulsifying stability (ES) were investigated by the method of Xiong et al. with slight modification. BLG solution (1 mg mL^−1) was added to Bai/Chr to form the solutions with different ratios of BLG to Bai/Chr (40:1, 30:1, 20:1, 10:1), and then soybean oil was added to form BLG solution containing 10% (v/v) oil. The emulsion was fully dispersed for 2 min at a rate of 7000 r min^−1 and repeated for three times. At 0 and 10 min, 30 µL of emulsion was extracted from the bottom of the sample and immediately added to 3 mL of 0.1% SDS solution. The absorbance of the sample was measured at 500 nm and recorded as A0 and A10, respectively. The EA (m^2 g^−1) and ES (min) were calculated according to the following equations:(11) EA (m^2 g^−1)=2×2.303/c×Φ×L×10^4×A0×D (12) ES (min)=A0/A0−A10×10 where c is the weight of the BLG per unit volume (g mL^−1), Φ is the volume fraction of the oil phase, L is the length of light path, and D is the dilution factor, D = 100.

β-lactoglobulin (BLG) [3] = biological target: T1, β-lactoglobulin (BLG); assay: CD spectra, secondary structure contents of BLG
Procedure: The CD spectra in the range of 200–250 nm were obtained from a CD spectrometer (MOS 450, Bio–Logic, Claix, France) equipped with 1.0 mm path length cuvette under the constant nitrogen flush. The solutions were prepared with molar ratios of Bai or Chr to BLG of 0:1, 1:1, and 2:1, respectively. The contents of secondary structure of BLG were determined based on our previously reported study.

β-lactoglobulin (BLG) [4] = biological target: T1, β-lactoglobulin (BLG); assay: Three-dimensional fluorescence spectra of BLG with Bai/Chr; conditions: c(BLG) = 20.0 µM, c(Bai/Chr) = 20.0 μM
Procedure: (§1) Intrinsic fluorescence spectroscopic test was measured on a F–7000 spectrophotometer (Hitachi, Japan) equipped with temperature controller according to the method described in the previous study. Briefly, 3 mL solution of BLG (20.0 µM) was titrated by continuously adding different amounts of Bai or Chr (0–20.0 µM). The fluorescence spectra were recorded at different temperatures (298 K, 304 K, and 310 K) with the excitation wavelength of 280 nm and the excitation and emission slit set at 2.5 nm. Moreover, synchronous fluorescence spectra were conducted by setting the wavelength intervals (λem–λex) at 15 nm and 60 nm, respectively. The 3D fluorescence spectra (molar ratios of BLG to Bai/Chr were 1:0 and 1:1) were recorded at excitation and emission wavelength range of 200−600 nm. All the fluorescence values were corrected to eliminate the internal filtering effect according to the previous method, and were used to evaluate the quenching mechanism of Bai/Chr binding to BLG by using the following equation [21]:(1) F0/F=1+Kqτ0[Q]=1+KSV[Q] where F and F0 are the fluorescence intensities of fluorophore with and without quencher; Ksv denotes the Stern–Volmer quenching constant; Kq is the quenching rate constant (Kq = Ksv/τ0), and τ0 is the average lifetime of the biomolecule in the absence of a quencher (τ0 = 10^−8 s); [Q] represents the experimental concentration of Bai/Chr.

β-lactoglobulin (BLG) [5] = biological target: T1, β-lactoglobulin (BLG); assay: Free sulfhydryl (SH) content of BLG (DTNB); conditions: Bai/Chr 0 to 20.0 µM, BLG 20.0 µM
Procedure: The content of free SH was determined by spectrophotometry according to the report by Takić et al. with minor modifications. Briefly, Bai/Chr concentrations were varied from 0 to 20.0 µM, and BLG was kept at 20.0 µM. Then the two solutions were incubated with 10.0 mM DTNB in 50 mM PBS (pH 6.8) for 30 min at room temperature. The absorbance of the sample at 412 nm was recorded and the molar extinction coefficient (14,360 M^−1 cm^−1) was obtained from the standard curve of L-cysteine, which was used to calculate the number of total sulfhydryl groups per gram of protein.

β-lactoglobulin (BLG) [6] = biological target: T1, β-lactoglobulin (BLG); assay: Intrinsic fluorescence quenching of BLG by Bai/Chr (Stern–Volmer and double logarithmic equations); type: binding; conditions: for Kd: Ka (binding constant); for Kd / Ksv (Stern–Volmer quenching constant): pH 6.8
Procedure: as §1
For static fluorescence quenching mechanism, the binding constant (Ka) and the number of binding sites (n) could be determined by the following equation [22]:(2) logF0−F/F=nlogKa−nlog1/[Qt]−(F0−F)[Pt]/F0 where [Qt] and [Pt] are the concentrations of Bai/Chr and BLG, respectively.

β-lactoglobulin (BLG) [7] = biological target: T1, β-lactoglobulin (BLG); assay: Foaming ability and foaming stability of BLG
Procedure: Foaming ability (FA) and foaming stability (FS) were measured as described by Wang et al. with some modifications. A certain amount of BLG solution (1.0 mg mL^−1) was added to a 100 mL cylinder, and Bai or Chr was added to form solutions with different ratios of BLG to Bai or Chr (40:1, 30:1, 20:1, 10:1). The initial height H0 of the foam was recorded. The foam was then sheared at 10,000 rpm in a high-speed dispersion machine for 1 min and the height of the foam was recorded as H1. The height of the foam was recorded as H2 30 min later. The FA (%) and FS (%) were calculated according to the following equations:(9) FA (%)=H1−H0/H0×100 (10) FS (%)=H2−H0/H1−H0×100

β-lactoglobulin (BLG) [8] = biological target: T1, β-lactoglobulin (BLG); assay: Protein surface hydrophobicity (PSH) of BLG with ANS probe
Procedure: PSH of BLG in the presence or absence of Bai or Chr was determined using ANS as a fluorescent probe. In the BLG solution (20.0 µM) alone or Bai/Chr–BLG mixture the ANS solution (5 mM) was continuously added until the fluorescence intensity of the mixture remained constant. The fluorescence intensity of the sample was recorded in the wavelength range of 400–600 nm upon 380 nm excitation. The PSH values were calculated by the following equations [26]:(5) [ANS]bound=F/B (6) [ANS]free=[ANS]total−[ANS]bound (7) F/[ANS]free=−F/Kdapp−Fmax/Kdapp (8) PSH=Fmax/[BLG]Kdapp where [ANS]free and [ANS]bound are the concentration of free and bound ANS, respectively. Kdapp is the apparent dissociation constant of ANS, Fmax is the maximum fluorescence intensity at saturating ANS concentration and B is the proportionality coefficient.

[9] = molar ratio of Bai/Chr to BLG 1:1
[10] = molar ratio of Bai/Chr to BLG 2:1
[11] = molar ratio of Bai/Chr to BLG 2:1, listed as Chr–BLG

With `O=c1cc(-c2ccccc2)oc2cc(O)cc(O)c12` [Chr, chrysin] the “ΔG° (free energy)” value (β-lactoglobulin (BLG) [1]; T = 298 K) was -7.268 kcal/mol, the “ΔG° (free energy)” value (β-lactoglobulin (BLG) [1]; T = 304 K) was -7.443 kcal/mol and the “ΔG° (free energy)” value (β-lactoglobulin (BLG) [1]; T = 310 K) was -7.62 kcal/mol. For the same molecule, the “ΔH° (enthalpy change)” value (β-lactoglobulin (BLG) [1]; from Ka at 298, 304 and 310 K) was 1.48 kcal/mol, the “ΔS° (entropy change)” value (β-lactoglobulin (BLG) [1]; from Ka at 298, 304 and 310 K) was 122.18 J mol^−1 K^−1 and the “effect on emulsifying stability (ES) of BLG” value (β-lactoglobulin (BLG) [2]; BLG to Bai/Chr 40:1 to 10:1) was “did the opposite”. The “effect on emulsifying ability (EA) of BLG” value (β-lactoglobulin (BLG) [2]; with the increase of Bai or Chr concentration (BLG to Bai/Chr 40:1 to 10:1)) was “slightly improved”, the “Random Coil content of BLG” value (β-lactoglobulin (BLG) [3]; [9]) was 25.96 ± 0.34 ^bc % and the “α-Helix content of BLG” value (β-lactoglobulin (BLG) [3]; [9]) was 14.30 ± 0.47 ^c %. For the same molecule, the “β-Sheet content of BLG” value (β-lactoglobulin (BLG) [3]; [9]) was 35.18 ± 0.12 ^c %, the “β-Turn content of BLG” value (β-lactoglobulin (BLG) [3]; [9]) was 24.56 ± 0.48 ^a % and the “Random Coil content of BLG” value (β-lactoglobulin (BLG) [3]; [10]) was 31.16 ± 0.10 ^a %. The “β-Turn content of BLG” value (β-lactoglobulin (BLG) [3]; [10]) was 24.53 ± 0.93 ^a %, the “α-Helix content of BLG” value (β-lactoglobulin (BLG) [3]; [11]) was 11.25% and 11.25 ± 0.58 ^d % and the “β-Sheet content of BLG” value (β-lactoglobulin (BLG) [3]; [11]) was 33.06% and 33.06 ± 0.30 ^e %. The “fluorescence intensity of Peak 2 (3D fluorescence)” value (β-lactoglobulin (BLG) [4]; free BLG 430.6) was 205.3, the “fluorescence intensity of Peak 1 (3D fluorescence)” value (β-lactoglobulin (BLG) [4]; free BLG 522.1) was 378.5 and the “effect on contents of free SH group of BLG” value (β-lactoglobulin (BLG) [5]) was “gradually weakened”. For the same molecule, the “Ka (binding constant)” value (β-lactoglobulin (BLG) [6]; 298 K) was 214000 L/mol, the Kd (β-lactoglobulin (BLG) [6]; T = 298 K) was 4.67 µM and the Kd (β-lactoglobulin (BLG) [6]; T = 304 K) was 4.81 µM. The Kd (β-lactoglobulin (BLG) [6]; T = 310 K) was 5.13 µM, the “n (number of binding sites)” value (β-lactoglobulin (BLG) [6]; T = 298 K) was 1.45 ± 0.01 and the “Ksv (Stern–Volmer quenching constant)” value (β-lactoglobulin (BLG) [6]; T = 298 K) was 3.10 ± 0.04 ^d ×10^4 L mol^−1. The “n (number of binding sites)” value (β-lactoglobulin (BLG) [6]; T = 304 K) was 1.01 ± 0.02, the “Ksv (Stern–Volmer quenching constant)” value (β-lactoglobulin (BLG) [6]; T = 304 K) was 2.94 ± 0.06 ^e ×10^4 L mol^−1 and the “n (number of binding sites)” value (β-lactoglobulin (BLG) [6]; T = 310 K) was 1.29 ± 0.01. For the same molecule, the “Ksv (Stern–Volmer quenching constant)” value (β-lactoglobulin (BLG) [6]; T = 310 K) was 2.59 ± 0.04 ^f ×10^4 L mol^−1, the BLG fluorescence quenching (β-lactoglobulin (BLG) [6]; after 10 times titration, 298 K, c(BLG) = 20 µM) was 59.0% and the “n (number of binding sites)” value (β-lactoglobulin (BLG) [6]; general statement for the three temperatures) was “approximately 1”. For the same molecule, the “increase of foaming stability (FS) of BLG” value (β-lactoglobulin (BLG) [7]; compared with BLG alone, molar ratio of BLG to Bai/Chr 10:1) was 85.57%, the “increase of foaming ability (FA) of BLG” value (β-lactoglobulin (BLG) [7]; compared with FA of free BLG (25.2%), molar ratios of BLG to Bai/Chr changed from 40:1 to 10:1) was 51.32% and the “F max (maximum fluorescence intensity at saturating ANS)” value (β-lactoglobulin (BLG) [8]; molar ratio 1:1) was 151.76 ± 3.04 ^b. For the same molecule, the “PSH (protein surface hydrophobicity)” value (β-lactoglobulin (BLG) [8]; molar ratio 1:1) was 252.82 ± 5.07 ^c, the Kdapp (apparent dissociation constant of ANS) (β-lactoglobulin (BLG) [8]; molar ratio 1:1, c(BLG) = 20.0 µM) was 5.67 ± 0.31 µM and the “Reduction Rate of PSH” value (β-lactoglobulin (BLG) [8]; molar ratio 1:1, versus BLG alone) was 23.25 ± 0.47 ^b %. The “F max (maximum fluorescence intensity at saturating ANS)” value (β-lactoglobulin (BLG) [8]; molar ratio 2:1) was 110.17 ± 2.20 ^d, the “PSH (protein surface hydrophobicity)” value (β-lactoglobulin (BLG) [8]; molar ratio 2:1) was 193.69 ± 3.87 ^e and the Kdapp (apparent dissociation constant of ANS) (β-lactoglobulin (BLG) [8]; molar ratio 2:1, c(BLG) = 20.0 µM) was 5.7 ± 0.1 µM. The “Reduction Rate of PSH” value (β-lactoglobulin (BLG) [8]; molar ratio 2:1, versus BLG alone) was 41.20 ± 0.82 ^a %.
